Source: PubChem BioAssay (NCI)
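1) Cells in 96-well plates. 2) Compound, 48 h, 5 concentrations. 3) Linear interpolation between surrounding doses. 4) Unreached endpoint = highest concentration. The concentration for 50% growth inhibition is given as GI50. TGI: concentration producing complete growth inhibition.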

Assays:
Test in all cases: DTP human tumour cell line panel, 48 h
LOX IMVI melanoma = tested on: LOX IMVI melanoma
OVCAR-8 ovarian = tested on: OVCAR-8 ovarian
KM12 colon = tested on: KM12 colon
SK-MEL-5 melanoma = tested on: SK-MEL-5 melanoma
OVCAR-4 ovarian = tested on: OVCAR-4 ovarian
HS 578T breast = tested on: HS 578T breast
UACC-62 melanoma = tested on: UACC-62 melanoma
K-562 leukemia = tested on: K-562 leukemia
OVCAR-5 ovarian = tested on: OVCAR-5 ovarian
SNB-19 CNS = tested on: SNB-19 CNS
T-47D breast = tested on: T-47D breast
HOP-62 NSCLC = tested on: HOP-62 NSCLC
DU-145 prostate = tested on: DU-145 prostate
MALME-3M melanoma = tested on: MALME-3M melanoma
CCRF-CEM leukemia = tested on: CCRF-CEM leukemia
U251 CNS = tested on: U251 CNS
SN12C renal = tested on: SN12C renal
SR leukemia = tested on: SR leukemia
NCI-H23 lung = tested on: NCI-H23 lung
RPMI-8226 leukemia = tested on: RPMI-8226 leukemia
TK-10 renal = tested on: TK-10 renal
HCT-116 colon = tested on: HCT-116 colon
MDA-MB-231 breast = tested on: MDA-MB-231 breast
NCI-H522 lung = tested on: NCI-H522 lung
COLO 205 colon = tested on: COLO 205 colon
ACHN renal = tested on: ACHN renal
UACC-257 melanoma = tested on: UACC-257 melanoma
OVCAR-3 ovarian = tested on: OVCAR-3 ovarian
NCI-H226 lung = tested on: NCI-H226 lung
NCI-H460 lung = tested on: NCI-H460 lung
HCT-15 colon = tested on: HCT-15 colon
HCC-2998 colon = tested on: HCC-2998 colon
SW-620 colon = tested on: SW-620 colon
A549 NSCLC = tested on: A549 NSCLC
M14 melanoma = tested on: M14 melanoma
BT-549 breast = tested on: BT-549 breast
NCI/ADR-RES ovarian = tested on: NCI/ADR-RES ovarian
PC-3 prostate = tested on: PC-3 prostate
IGROV1 ovarian = tested on: IGROV1 ovarian
SK-OV-3 ovarian = tested on: SK-OV-3 ovarian
HOP-92 NSCLC = tested on: HOP-92 NSCLC
CAKI-1 renal = tested on: CAKI-1 renal
HT29 colon = tested on: HT29 colon
786-0 renal = tested on: 786-0 renal
EKVX NSCLC = tested on: EKVX NSCLC
MCF7 breast = tested on: MCF7 breast
MOLT-4 leukemia = tested on: MOLT-4 leukemia
SF-295 CNS = tested on: SF-295 CNS
SNB-75 CNS = tested on: SNB-75 CNS
SF-268 CNS = tested on: SF-268 CNS
HL-60(TB) leukemia = tested on: HL-60(TB) leukemia
MDA-MB-435 = tested on: MDA-MB-435
SK-MEL-2 melanoma = tested on: SK-MEL-2 melanoma
SK-MEL-28 melanoma = tested on: SK-MEL-28 melanoma
A498 renal = tested on: A498 renal
SF-539 CNS = tested on: SF-539 CNS

Structure (SMILES): Cc1nc(N)sc1-c1csc(Nc2ccc(C(F)(F)F)cc2)n1
- GI50 (LOX IMVI melanoma): 2.44 µM
- TGI (LOX IMVI melanoma): 9.9 µM
- GI50 (OVCAR-8 ovarian): 11.1 µM
- TGI (OVCAR-8 ovarian): 25.6 µM
- GI50 (KM12 colon): 3.55 µM
- TGI (KM12 colon): 14.5 µM
- GI50 (SK-MEL-5 melanoma): 3.32 µM
- TGI (SK-MEL-5 melanoma): 11.9 µM
- GI50 (OVCAR-4 ovarian): 3.63 µM
- TGI (OVCAR-4 ovarian): 16.7 µM
- GI50 (HS 578T breast): 2.84 µM
- TGI (HS 578T breast): 23.6 µM
- GI50 (UACC-62 melanoma): 8.61 µM
- TGI (UACC-62 melanoma): 21 µM
- GI50 (K-562 leukemia): 3.27 µM
- TGI (K-562 leukemia): 31 µM
- GI50 (OVCAR-5 ovarian): 4.42 µM
- TGI (OVCAR-5 ovarian): 18.9 µM
- GI50 (SNB-19 CNS): 11.9 µM
- TGI (SNB-19 CNS): 24.8 µM
- GI50 (T-47D breast): 1.65 µM
- TGI (T-47D breast): 10.1 µM
- GI50 (HOP-62 NSCLC): 7.86 µM
- TGI (HOP-62 NSCLC): 26.4 µM
- GI50 (DU-145 prostate): 4.59 µM
- TGI (DU-145 prostate): 17.7 µM
- GI50 (MALME-3M melanoma): 4.11 µM
- TGI (MALME-3M melanoma): 17.6 µM
- GI50 (CCRF-CEM leukemia): 3.22 µM
- TGI (CCRF-CEM leukemia): 53 µM
- GI50 (U251 CNS): 7.17 µM
- TGI (U251 CNS): 26.2 µM
- GI50 (SN12C renal): 6.72 µM
- TGI (SN12C renal): 21 µM
- GI50 (SR leukemia): 3.6 µM
- TGI (SR leukemia): 24.2 µM
- GI50 (NCI-H23 lung): 5.57 µM
- TGI (NCI-H23 lung): 21.7 µM
- GI50 (RPMI-8226 leukemia): 3.98 µM
- TGI (RPMI-8226 leukemia): 72.3 µM
- GI50 (TK-10 renal): 8.73 µM
- TGI (TK-10 renal): 21.4 µM
- GI50 (HCT-116 colon): 3.36 µM
- TGI (HCT-116 colon): 16 µM
- GI50 (MDA-MB-231 breast): 3.45 µM
- TGI (MDA-MB-231 breast): 17.5 µM
- GI50 (NCI-H522 lung): 4.75 µM
- TGI (NCI-H522 lung): 18.7 µM
- GI50 (COLO 205 colon): 11.9 µM
- TGI (COLO 205 colon): 36.9 µM
- GI50 (ACHN renal): 2.75 µM
- TGI (ACHN renal): 13.9 µM
- GI50 (UACC-257 melanoma): 9.37 µM
- TGI (UACC-257 melanoma): 22.1 µM
- GI50 (OVCAR-3 ovarian): 4.41 µM
- TGI (OVCAR-3 ovarian): 17.3 µM
- GI50 (NCI-H226 lung): 2.72 µM
- TGI (NCI-H226 lung): 24.3 µM
- GI50 (NCI-H460 lung): 3.44 µM
- TGI (NCI-H460 lung): 15.7 µM
- GI50 (HCT-15 colon): 3.02 µM
- TGI (HCT-15 colon): 11.9 µM
- GI50 (HCC-2998 colon): 4.66 µM
- TGI (HCC-2998 colon): 17.3 µM
- GI50 (SW-620 colon): 4.92 µM
- TGI (SW-620 colon): 19.5 µM
- GI50 (A549 NSCLC): 7.34 µM
- TGI (A549 NSCLC): 35.8 µM
- GI50 (M14 melanoma): 3.25 µM
- TGI (M14 melanoma): 14.8 µM
- GI50 (BT-549 breast): 2.03 µM
- TGI (BT-549 breast): 6.75 µM
- GI50 (NCI/ADR-RES ovarian): 5.36 µM
- TGI (NCI/ADR-RES ovarian): 21 µM
- GI50 (PC-3 prostate): 4.12 µM
- TGI (PC-3 prostate): 22.2 µM
- GI50 (IGROV1 ovarian): 2.01 µM
- TGI (IGROV1 ovarian): 14.7 µM
- GI50 (SK-OV-3 ovarian): 16.4 µM
- TGI (SK-OV-3 ovarian): 33.4 µM
- GI50 (HOP-92 NSCLC): 2.63 µM
- TGI (HOP-92 NSCLC): 15 µM
- GI50 (CAKI-1 renal): 3.62 µM
- TGI (CAKI-1 renal): 17.5 µM
- GI50 (HT29 colon): 2.49 µM
- TGI (HT29 colon): 7.09 µM
- GI50 (786-0 renal): 4.41 µM
- TGI (786-0 renal): 17.5 µM
- GI50 (EKVX NSCLC): 3.83 µM
- TGI (EKVX NSCLC): 17.6 µM
- GI50 (MCF7 breast): 2.65 µM
- TGI (MCF7 breast): 16 µM
- GI50 (MOLT-4 leukemia): 2.71 µM
- TGI (MOLT-4 leukemia): 21.1 µM
- GI50 (SF-295 CNS): 3.08 µM
- TGI (SF-295 CNS): 15.1 µM
- GI50 (SNB-75 CNS): 3.41 µM
- TGI (SNB-75 CNS): 16.9 µM
- GI50 (SF-268 CNS): 6.75 µM
- TGI (SF-268 CNS): 22.6 µM
- GI50 (HL-60(TB) leukemia): 13.2 µM
- TGI (HL-60(TB) leukemia): 32.2 µM
- GI50 (MDA-MB-435): 4.43 µM
- TGI (MDA-MB-435): 17.4 µM
- GI50 (SK-MEL-2 melanoma): 1.76 µM
- TGI (SK-MEL-2 melanoma): 16.4 µM
- GI50 (SK-MEL-28 melanoma): 10.2 µM
- TGI (SK-MEL-28 melanoma): 21.9 µM
- GI50 (A498 renal): 11.9 µM
- TGI (A498 renal): 25.1 µM
- GI50 (SF-539 CNS): 6.69 µM
- TGI (SF-539 CNS): 20 µM
